Measurements published in patent US20210395239A1 (Hoffmann-La Roche Inc., priority 2018, published 2021).
pIC50: −log10 of the molar value.

Legend:
CYP3A4 = molecular target: T1, CYP3A4 (Homo sapiens, UniProt P08684); experiment: CYP inhibition assay in human liver microsome, CYP3A4; assay type: in vitro ADME; settings: human, human liver microsomes, probe midazolam 5 μM, substrate midazolam 5 μM, third value of 2C9/2D6/3A4
T1 construct: tissue BD-Gentest 452117; host or cells: human liver microsomes
T1 sequence (P08684 whole entry): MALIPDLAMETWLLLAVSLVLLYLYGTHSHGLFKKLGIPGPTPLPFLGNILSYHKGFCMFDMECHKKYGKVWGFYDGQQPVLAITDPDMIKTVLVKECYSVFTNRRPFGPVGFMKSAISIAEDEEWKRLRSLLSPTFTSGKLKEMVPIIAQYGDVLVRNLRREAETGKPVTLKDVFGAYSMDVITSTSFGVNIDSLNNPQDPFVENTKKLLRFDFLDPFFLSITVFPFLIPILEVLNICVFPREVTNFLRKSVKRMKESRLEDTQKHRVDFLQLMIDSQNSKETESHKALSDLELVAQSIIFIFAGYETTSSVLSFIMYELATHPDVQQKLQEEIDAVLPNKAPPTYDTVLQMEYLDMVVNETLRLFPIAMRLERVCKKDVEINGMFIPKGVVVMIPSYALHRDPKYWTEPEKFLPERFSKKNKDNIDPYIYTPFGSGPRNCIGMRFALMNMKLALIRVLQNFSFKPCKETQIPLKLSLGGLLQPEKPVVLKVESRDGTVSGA
Protocol: (§1) This is a high throughput screening assay used for assessment of reversible inhibition of CYP2C9, CYP2D6, and CYP3A4 activity of test compounds in human liver microsome (HLM) in early discovery stage.
(§2) 10 mM DMSO stock solutions of test compounds were diluted in DMSO to generate 2 mM intermediate stock solution. 250 nL, of intermediate stock solution were transferred in duplicate into 3 separate 384 well microtitre plates (assay-ready plates). A mixture of HLM and each substrate was made up. 45 μL of HLM substrate mix was then transferred to each well of an assay ready plate and mixed. The negative (solvent) and positive controls (standard inhibitor for each CYP) were included in each assay ready plate. The assay ready plate was warmed to 37° C. in an incubator over 10 minutes. 5 μL pre-warmed NADPH regenerating system was added to each incubation well to start the reaction. Final incubation volume was 50 μL. The assay plate then was placed back in the 37° C. incubator. After incubation (10 minutes for CYP2D6) for 5 minutes, incubates were quenched by addition of 50 μL 100% acetonitrile containing internal standards (400 ng/mL 13C6-4′-OH-Diclofenac, 20 ng/mL D3-Dextrorphan and 20 ng/mL D4-1′OH-Midazolam). The supernatants were collected for RapidFire/MS/MS analysis.
(§3) RapidFire online solid phase extraction/sample injection system (Agilent) coupled with API4000 triple quadrupole mass spectrometer (AB Sciex) were used for sample analysis. The mobile phase composed of acetonitrile and water supplemented with 0.1% formic acid. A C4 solid phase extraction cartridge is used for sample separation. MS detection is achieved in positive ion MRM mode.
(§4) Peak areas for substrate, metabolite and internal standard are determined using the RapidFire integrator software (version 3.6.12009.12296). Peak area ratios (PAR) of metabolite and internal standard (stable-labelled metabolite) are then calculated. The measurement window for each experiment is then defined:
(§5) PAR (0% activity)=average PAR for all incubations containing concentrated inhibitor; Par (100% activity)=average PAR for all incubations containing no inhibitor (DMSO controls); % Activity (test inhibitor)=[PAR (test inhibitor)−PAR (0% activity)]/[PAR (100% activity)−PAR (0% activity)]; % Inhibition (test inhibitor)=100-% Activity (test inhibitor).

human TLR7 = molecular target: T2, human TLR7 (Homo sapiens, UniProt Q9NYK1); experiment: HEK293-Blue-hTLR-7 cells assay (SEAP reporter, R848 stimulation); assay type: cell-based; settings: HEK293-Blue-hTLR7 cells, R848, 20 hrs; read-out: HEK/hTLR7 IC50
T2 construct: host or cells: HEK293 (HEK-Blue hTLR7)
T2 sequence (Q9NYK1 27-1049): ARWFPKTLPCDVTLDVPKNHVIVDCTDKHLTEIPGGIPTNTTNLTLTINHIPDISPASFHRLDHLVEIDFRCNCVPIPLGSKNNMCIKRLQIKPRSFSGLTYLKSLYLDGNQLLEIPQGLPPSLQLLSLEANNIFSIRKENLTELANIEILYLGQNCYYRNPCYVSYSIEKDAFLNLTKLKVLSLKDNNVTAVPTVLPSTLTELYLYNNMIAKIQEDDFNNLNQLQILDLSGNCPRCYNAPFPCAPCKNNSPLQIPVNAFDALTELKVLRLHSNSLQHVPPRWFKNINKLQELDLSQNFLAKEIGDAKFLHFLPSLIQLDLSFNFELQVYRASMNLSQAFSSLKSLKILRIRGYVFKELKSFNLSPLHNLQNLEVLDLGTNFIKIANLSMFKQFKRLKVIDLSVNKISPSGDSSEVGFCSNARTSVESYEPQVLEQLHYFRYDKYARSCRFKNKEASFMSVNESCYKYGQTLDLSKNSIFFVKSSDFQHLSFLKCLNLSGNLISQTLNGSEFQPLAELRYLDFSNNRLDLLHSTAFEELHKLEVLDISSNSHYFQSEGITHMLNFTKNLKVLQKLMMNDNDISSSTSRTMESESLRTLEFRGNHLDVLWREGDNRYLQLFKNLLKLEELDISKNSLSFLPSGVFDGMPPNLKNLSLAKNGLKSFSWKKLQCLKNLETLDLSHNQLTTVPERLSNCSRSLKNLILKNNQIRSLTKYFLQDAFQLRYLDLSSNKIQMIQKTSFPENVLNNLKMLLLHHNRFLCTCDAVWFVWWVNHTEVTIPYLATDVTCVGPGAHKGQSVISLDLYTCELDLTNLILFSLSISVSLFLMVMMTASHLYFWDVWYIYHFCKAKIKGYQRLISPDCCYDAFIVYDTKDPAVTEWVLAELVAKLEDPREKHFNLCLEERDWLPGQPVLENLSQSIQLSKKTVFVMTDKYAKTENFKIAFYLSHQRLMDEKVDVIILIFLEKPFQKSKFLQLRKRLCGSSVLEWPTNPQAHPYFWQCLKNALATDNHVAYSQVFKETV
Method in brief: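 HEK293-Blue-hTLR7 cells (NF-κB/AP-1-driven SEAP reporter) were stimulated with R848 alongside serially diluted compound at 1% final DMSO for 20 h at 37 °C. Supernatant SEAP was then developed with QUANTI-Blue for 2 h at 37 °C and absorbance read at 620–655 nm; antagonism is measured as reduced reporter signal.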

CYP2C9 = molecular target: T3, CYP2C9 (Homo sapiens, UniProt P11712); experiment: CYP inhibition assay in human liver microsome, CYP2C9; assay type: in vitro ADME; settings: human, human liver microsomes, probe diclofenac 5 μM, substrate diclofenac 5 μM, first value of 2C9/2D6/3A4
T3 construct: tissue BD-Gentest 452117; host or cells: human liver microsomes
T3 sequence (P11712 whole entry): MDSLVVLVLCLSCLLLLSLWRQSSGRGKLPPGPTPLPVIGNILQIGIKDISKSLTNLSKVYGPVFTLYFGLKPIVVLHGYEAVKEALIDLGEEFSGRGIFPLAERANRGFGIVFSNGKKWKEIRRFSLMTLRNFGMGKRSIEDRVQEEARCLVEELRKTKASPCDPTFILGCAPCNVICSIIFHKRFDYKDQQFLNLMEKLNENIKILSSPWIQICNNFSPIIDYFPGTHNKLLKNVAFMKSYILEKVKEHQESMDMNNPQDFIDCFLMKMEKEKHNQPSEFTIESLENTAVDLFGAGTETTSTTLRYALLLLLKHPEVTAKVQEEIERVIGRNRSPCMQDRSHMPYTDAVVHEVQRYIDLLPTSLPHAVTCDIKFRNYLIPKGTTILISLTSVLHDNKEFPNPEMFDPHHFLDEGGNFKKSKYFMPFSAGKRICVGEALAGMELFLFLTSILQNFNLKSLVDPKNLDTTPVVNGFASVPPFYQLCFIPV
Protocol: as §1, §2, §3, §4, §5

Row | SMILES | inhibition at 5 min, 10 µM (CYP3A4) [%] | pIC50 (human TLR7) | inhibition at 5 min, 10 µM (CYP2C9) [%]
1 | C[C@@H]1CN(c2ccc(C#N)c3ncccc23)C[C@H](CN2CCC(c3cccc(N4CCNCC4)c3)C2)O1 (stereo partly drawn) [Example 1, 5-[(2R,6S)-2-methyl-6-[[3-(3-piperazin-1-ylphenyl)pyrrolidin-1-yl]methyl]morpholin-4-yl]quinoline-8-carbonitrile] | 14 | 7.08 | -7
2 | C[C@@H]1CN(c2ccc(C#N)c3ncccc23)C[C@H](CN2CCC(c3cccc(C4CCNCC4)c3)CC2)O1 [Example 2, 5-[(2R,6S)-2-methyl-6-[[4-[3-(4-piperidyl)phenyl]-1-piperidyl]methyl]morpholin-4-yl]quinoline-8-carbonitrile] | 18 | 7.03 | 2
3 | C[C@@H]1CN(c2ccc(C#N)c3ncccc23)C[C@H](CN2CC(c3ccc(N4CCNCC4)cc3)C2)O1 [Example 3, 5-[(2R,6S)-2-methyl-6-[[3-(4-piperazin-1-ylphenyl)azetidin-1-yl]methyl]morpholin-4-yl]quinoline-8-carbonitrile] | 4.5 | 7.96 | -18
4 | C[C@@H]1CN(c2ccc(C#N)c3ncccc23)C[C@H](CN2CC(c3cccc(N4CCNCC4)c3)C2)O1 [Example 4, 5-[(2R,6S)-2-methyl-6-[[3-(3-piperazin-1-ylphenyl)azetidin-1-yl]methyl]morpholin-4-yl]quinoline-8-carbonitrile] | 0.5 | 7.80 | 5.5
5 | C[C@@H]1CN(c2ccc(C#N)c3ncccc23)C[C@H](CN2CCN(c3ccnc(N4C[C@H](N)[C@@H](F)C4)n3)CC2)O1 [Example 110, 5-[(2S,6R)-2-[[4-[2-[(3S,4S)-3-amino-4-fluoro-pyrrolidin-1-yl]pyrimidin-4-yl]piperazin-1-yl]methyl]-6-methyl-morpholin-4-yl]quinoline-8-carbonitrile] | 44 | 7.85 | 22
6 | Cc1ccc(N2C[C@H](CN3CCN(c4nccc(N5CCNCC5)n4)CC3)O[C@H](C)C2)c2nccnc12 [Example 116, (2R,6S)-2-methyl-4-(8-methylquinoxalin-5-yl)-6-[[4-(4-piperazin-1-ylpyrimidin-2-yl)piperazin-1-yl]methyl]morpholine] | 8 | 7.68 | -8.5
7 | Cc1ccc(N2C[C@H](CN3CCN(c4ccnc(N5CCNCC5)n4)CC3)O[C@H](C)C2)c2nccnc12 [Example 117, (2R,6S)-2-methyl-4-(8-methylquinoxalin-5-yl)-6-[[4-(2-piperazin-1-ylpyrimidin-4-yl)piperazin-1-yl]methyl]morpholine] | 10 | 7.89 | 8.5
8 | [2H]c1ccc2c(N3C[C@H](CN4CCN(c5ccc(N6CC(C)(N)C6)nc5)CC4)O[C@H](C)C3)ccc(C#N)c2n1 [Example 132, 5-[(2S,6R)-2-[[4-[6-(3-amino-3-methyl-azetidin-1-yl)-3-pyridyl]piperazin-1-yl]methyl]-6-methyl-morpholin-4-yl]-2-deuterio-quinoline-8-carbonitrile] | 7.5 | 7.64 | -1

The next lines start with the values.

Row | inhibition at 5 min, 10 µM (CYP3A4) [%] | pIC50 (human TLR7) | inhibition at 5 min, 10 µM (CYP2C9) [%] | SMILES
9 | -12 | 7.66 | -1 | CO[C@H]1CN(c2cc(C)nc(N3CCN(C[C@H]4CN(c5ccc(C#N)c6nccnc56)C[C@@H](C)O4)CC3)n2)C[C@@H]1N [Example 104, 8-[(2S,6R)-2-[[4-[4-[(3S,4S)-3-amino-4-methoxy-pyrrolidin-1-yl]-6-methyl-pyrimidin-2-yl]piperazin-1-yl]methyl]-6-methyl-morpholin-4-yl]quinoxaline-5-carbonitrile]
10 | 20.5 | 8.05 | 17 | CO[C@H]1CN(c2nc(C)cc(N3CCN(C[C@H]4CN(c5ccc(C#N)c6nccnc56)C[C@@H](C)O4)CC3)n2)C[C@@H]1N [Example 106, 8-[(2S,6R)-2-[[4-[2-[(3S,4S)-3-amino-4-methoxy-pyrrolidin-1-yl]-6-methyl-pyrimidin-4-yl]piperazin-1-yl]methyl]-6-methyl-morpholin-4-yl]quinoxaline-5-carbonitrile]
11 | 34.5 | 8.10 | 19.5 | C[C@@H]1CN(c2ccc(C#N)c3nccnc23)C[C@H](CN2CCN(c3ccnc(N4C[C@H](N)[C@@H](F)C4)n3)CC2)O1 [Example 107, 8-[(2S,6R)-2-[[4-[2-[(3S,4S)-3-amino-4-fluoro-pyrrolidin-1-yl]pyrimidin-4-yl]piperazin-1-yl]methyl]-6-methyl-morpholin-4-yl]quinoxaline-5-carbonitrile]
12 | -5 | 8.40 | 0.5 | Cc1cc(N2CCN(C[C@H]3CN(c4ccc(C#N)c5nccnc45)C[C@@H](C)O3)CC2)nc(N2CC(N)C2)n1 [Example 112, 8-[(2S,6R)-2-[[4-[2-(3-aminoazetidin-1-yl)-6-methyl-pyrimidin-4-yl]piperazin-1-yl]methyl]-6-methyl-morpholin-4-yl]quinoxaline-5-carbonitrile]
13 | 16 | 8.52 | 7.5 | Cc1cc(N2CCNCC2)nc(N2CCN(C[C@H]3CN(c4ccc(C#N)c5nccnc45)C[C@@H](C)O3)CC2)n1 [Example 114, 8-[(2R,6S)-2-methyl-6-[[4-(4-methyl-6-piperazin-1-yl-pyrimidin-2-yl)piperazin-1-yl]methyl]morpholin-4-yl]quinoxaline-5-carbonitrile]
14 | 23.5 | 7.80 | -12.5 | C[C@@H]1CN(c2ccc(C#N)c3nccnc23)C[C@H](CN2CCN(c3nccc(N4C[C@@H](N)[C@H](F)C4)n3)CC2)O1 [Example 119, 8-[(2S,6R)-2-[[4-[4-[(3R,4R)-3-amino-4-fluoro-pyrrolidin-1-yl]pyrimidin-2-yl]piperazin-1-yl]methyl]-6-methyl-morpholin-4-yl]quinoxaline-5-carbonitrile]
15 | 16 | 8.30 | -2 | [2H]c1nc2c(C#N)ccc(N3C[C@H](CN4CCN(c5nc(C)cc(N6CC(N)C6)n5)CC4)O[C@H](C)C3)c2nc1[2H] [Example 124, 8-[(2S,6R)-2-[[4-[4-(3-aminoazetidin-1-yl)-6-methyl-pyrimidin-2-yl]piperazin-1-yl]methyl]-6-methyl-morpholin-4-yl]-2,3-dideuterio-quinoxaline-5-carbonitrile]
